Structures are written as SMILES. Square brackets hold non-standard residues; d marks the D form. Peptide text beside a SMILES is read from it. NMeR = CN[C@@H](CCCNC(=N)N)C(=O)O; Tle = CC(C)(C)[C@H](N)C(=O)O Bounds are passed on as bounds.

What is called Ki is the equilibrium dissociation constant of an inhibitor or competing ligand from its target. A high value points to a looser hold on the target. A word on the pKi: it is the negative decadic logarithm of the Ki, by convention in mol/L. Low values mean a high Ki, high ones a low Ki.

A short description of assay [1]: Displacement of FAM-NT8-13 from rat NTSR1 stably expressed in HEK293F cells incubated for 1 hr under dark condition by mCherry fluorophore based competition binding assay. Type of assay: cell-based.
Assay [2] has as its target Neurotensin receptor type 1 (Homo sapiens, UniProt P30989). In words: Inhibition of NTSR1 (unknown origin).

Neurotensin receptor type 1, sequence (P30989 whole entry): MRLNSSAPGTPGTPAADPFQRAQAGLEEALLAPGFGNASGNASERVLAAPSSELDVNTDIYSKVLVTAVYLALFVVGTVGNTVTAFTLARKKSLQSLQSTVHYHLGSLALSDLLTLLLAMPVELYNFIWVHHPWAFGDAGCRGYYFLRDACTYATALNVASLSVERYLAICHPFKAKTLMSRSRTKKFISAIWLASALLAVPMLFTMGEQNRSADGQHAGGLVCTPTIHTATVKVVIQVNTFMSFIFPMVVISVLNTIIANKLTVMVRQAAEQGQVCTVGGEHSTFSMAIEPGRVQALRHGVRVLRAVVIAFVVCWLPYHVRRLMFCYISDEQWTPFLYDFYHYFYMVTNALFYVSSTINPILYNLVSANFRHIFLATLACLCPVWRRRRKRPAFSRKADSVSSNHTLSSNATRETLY

On to `CC(C)C[C@H](NC(=O)[C@@H](NC(=O)[C@H](Cc1ccc(O)cc1)NC(=O)[C@@H]1CCCN1C(=O)[C@H](CCCCN)NC(=O)[C@@H](N)CCCNC(=N)N)C(C)(C)C)C(=O)O` (H-RKPY[Tle]L-OH), for which, in assay [1], the affinity, expressed as Ki, was 0.0479 µM and the pKi came to 7.32. In the case of `CN[C@@H](CCCNC(=N)N)C(=O)N[C@@H](CCCCN)C(=O)N1CCC[C@H]1C(=O)N[C@@H](Cc1c[nH]c2ccccc12)C(=O)N[C@H](C(=O)N[C@@H](CC(C)C)C(=O)O)C(C)(C)C` (H-[NMeR]KPW[Tle]L-OH), the Ki in assay [2] was 0.00537 µM. The molecule `CC(C)C[C@H](NC(=O)[C@@H](N)C(C)(C)C)C(=O)N[C@@H](CCCNC(=N)N)C(=O)N[C@@H](CCCCN)C(=O)N1CCC[C@H]1C(=O)N[C@@H](Cc1ccc(O)cc1)C(=O)O` (H-[Tle]LRKPY-OH) came in with a pKi in assay [1] of less than 4. With `CC(C)C[C@@H]1NC(=O)[C@H](C(C)(C)C)NC(=O)[C@H](Cc2ccc(O)cc2)NC(=O)[C@@H]2CCCN2C(=O)[C@H](CCCCN)NC(=O)[C@H](CCCNC(=N)N)NC1=O` (cyclo(KPY[Tle]LR)), in assay [1], the Ki was found to be 1.48 µM and the negative logarithm of the Ki (pKi) is less than 4. In addition, in assay [2], the Ki was 1.07 µM.

The values are drawn from ChEMBL document CHEMBL6096710, “Re-evaluation of Cyclic Peptide Binding to Neurotensin Receptor 1 by Shifting the Peptide Register during Synthesis” (ACS Med Chem Lett, 2025).
